Assay results taken from the kinase profiling compilation of Christmann-Franck et al. (2016).

Legend:
Assay in all cases: radiometric filter-binding kinase assay, Kinase HotSpot
Conditions in all cases: compound 0.5 µM; ATP 10 µM
[1] = tested on: MKNK1 (human), Q9BUB5 [T385D; 165-205 del]
[2] = tested on: MAP2K6 (human), P52564 [S207E/T211E]
[3] = tested on: FLT4 (human), P35916 [Q890H]
[4] = tested on: PRKCQ (human), Q04759 [P330L]
Sequence of PRKCQ (human), Q04759 [P330L] (Q04759 whole entry P330L, looked up): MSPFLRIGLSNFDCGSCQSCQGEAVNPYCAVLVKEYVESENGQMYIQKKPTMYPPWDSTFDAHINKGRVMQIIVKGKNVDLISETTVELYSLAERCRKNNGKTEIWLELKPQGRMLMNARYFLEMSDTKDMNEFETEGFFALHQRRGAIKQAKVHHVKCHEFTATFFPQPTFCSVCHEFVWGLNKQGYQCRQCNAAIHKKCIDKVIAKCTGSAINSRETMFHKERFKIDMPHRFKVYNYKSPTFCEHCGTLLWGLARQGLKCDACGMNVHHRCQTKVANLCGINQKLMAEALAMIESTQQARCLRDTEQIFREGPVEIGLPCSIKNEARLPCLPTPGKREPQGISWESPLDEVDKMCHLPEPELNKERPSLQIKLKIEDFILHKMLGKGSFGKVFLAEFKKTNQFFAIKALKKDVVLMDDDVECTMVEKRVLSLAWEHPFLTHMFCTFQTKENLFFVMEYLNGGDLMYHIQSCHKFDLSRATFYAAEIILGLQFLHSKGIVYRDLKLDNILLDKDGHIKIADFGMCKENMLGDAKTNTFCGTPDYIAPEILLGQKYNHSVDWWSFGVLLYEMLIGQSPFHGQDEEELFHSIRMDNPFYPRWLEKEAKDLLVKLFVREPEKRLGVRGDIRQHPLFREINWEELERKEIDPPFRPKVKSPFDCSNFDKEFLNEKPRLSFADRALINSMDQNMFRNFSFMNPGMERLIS

Sequence of MKNK1 (human), Q9BUB5 [T385D; 165-205 del] (Q9BUB5 whole entry, looked up, stated change not applied): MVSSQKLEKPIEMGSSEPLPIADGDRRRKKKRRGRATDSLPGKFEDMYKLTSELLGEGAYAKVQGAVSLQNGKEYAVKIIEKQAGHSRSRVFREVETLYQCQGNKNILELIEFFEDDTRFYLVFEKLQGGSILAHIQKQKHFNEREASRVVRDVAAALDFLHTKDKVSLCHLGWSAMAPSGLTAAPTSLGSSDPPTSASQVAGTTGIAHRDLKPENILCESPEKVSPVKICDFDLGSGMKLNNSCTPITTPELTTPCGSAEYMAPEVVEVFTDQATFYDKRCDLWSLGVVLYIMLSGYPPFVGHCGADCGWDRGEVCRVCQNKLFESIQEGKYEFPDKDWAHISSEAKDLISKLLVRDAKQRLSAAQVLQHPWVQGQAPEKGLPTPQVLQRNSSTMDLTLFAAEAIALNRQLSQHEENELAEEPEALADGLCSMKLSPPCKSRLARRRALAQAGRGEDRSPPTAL
Sequence of FLT4 (human), P35916 [Q890H] (P35916 whole entry, looked up, stated change not applied): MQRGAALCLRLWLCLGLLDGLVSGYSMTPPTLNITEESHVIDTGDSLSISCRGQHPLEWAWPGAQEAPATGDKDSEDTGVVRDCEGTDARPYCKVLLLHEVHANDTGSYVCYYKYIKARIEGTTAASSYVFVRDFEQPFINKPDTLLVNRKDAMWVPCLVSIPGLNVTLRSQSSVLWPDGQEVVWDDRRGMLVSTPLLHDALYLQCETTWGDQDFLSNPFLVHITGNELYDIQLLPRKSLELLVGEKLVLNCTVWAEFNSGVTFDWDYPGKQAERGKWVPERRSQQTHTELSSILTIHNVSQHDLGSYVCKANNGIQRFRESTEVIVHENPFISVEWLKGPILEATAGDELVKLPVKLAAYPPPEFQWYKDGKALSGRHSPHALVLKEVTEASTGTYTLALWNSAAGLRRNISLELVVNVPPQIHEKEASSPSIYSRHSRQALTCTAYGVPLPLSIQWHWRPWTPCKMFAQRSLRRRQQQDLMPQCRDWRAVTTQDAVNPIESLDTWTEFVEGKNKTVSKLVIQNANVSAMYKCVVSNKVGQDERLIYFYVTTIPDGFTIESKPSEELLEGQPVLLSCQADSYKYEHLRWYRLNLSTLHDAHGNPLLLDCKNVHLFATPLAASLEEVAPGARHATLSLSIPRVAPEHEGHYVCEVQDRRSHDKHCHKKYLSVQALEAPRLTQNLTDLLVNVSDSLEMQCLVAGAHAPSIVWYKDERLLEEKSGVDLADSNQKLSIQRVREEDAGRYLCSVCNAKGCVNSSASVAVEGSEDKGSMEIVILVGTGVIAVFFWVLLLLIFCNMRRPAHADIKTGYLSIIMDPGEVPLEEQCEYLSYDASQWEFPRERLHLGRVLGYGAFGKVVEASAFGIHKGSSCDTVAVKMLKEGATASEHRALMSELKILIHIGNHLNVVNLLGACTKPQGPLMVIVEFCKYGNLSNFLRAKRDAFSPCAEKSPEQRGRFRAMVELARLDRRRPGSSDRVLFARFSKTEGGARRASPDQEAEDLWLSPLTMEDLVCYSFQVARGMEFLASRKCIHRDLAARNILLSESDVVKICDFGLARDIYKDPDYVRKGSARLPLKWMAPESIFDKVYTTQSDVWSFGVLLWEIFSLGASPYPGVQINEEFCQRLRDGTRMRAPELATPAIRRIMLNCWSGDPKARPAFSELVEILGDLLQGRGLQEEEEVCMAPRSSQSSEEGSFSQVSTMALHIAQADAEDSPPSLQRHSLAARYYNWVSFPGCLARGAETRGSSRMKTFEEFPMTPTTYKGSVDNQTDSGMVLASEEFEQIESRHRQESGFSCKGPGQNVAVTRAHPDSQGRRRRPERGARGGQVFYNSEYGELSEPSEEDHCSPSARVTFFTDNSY
Sequence of MAP2K6 (human), P52564 [S207E/T211E] (P52564 whole entry S207E/T211E, looked up): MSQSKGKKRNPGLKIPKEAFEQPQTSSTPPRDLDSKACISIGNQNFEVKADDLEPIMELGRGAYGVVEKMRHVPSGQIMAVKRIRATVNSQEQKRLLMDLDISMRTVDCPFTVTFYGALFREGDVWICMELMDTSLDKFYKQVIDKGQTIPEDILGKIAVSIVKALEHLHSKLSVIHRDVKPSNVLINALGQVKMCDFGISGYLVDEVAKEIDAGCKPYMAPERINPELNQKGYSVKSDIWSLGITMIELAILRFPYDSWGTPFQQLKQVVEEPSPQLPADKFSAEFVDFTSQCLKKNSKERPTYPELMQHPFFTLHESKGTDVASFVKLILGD

| Structure (SMILES) | residual activity [1] [%] | residual activity [2] [%] | residual activity [3] [%] | residual activity [4] [%] |
| --- | --- | --- | --- | --- |
| COc1ccc(COc2ccc(Cc3cnc(N)nc3N)cc2OC)cc1 | 113 | 87.4 | 105 | 98 |
| CN([C@@H](Cc1ccc(OS(=O)(=O)c2cccc3cnccc23)cc1)C(=O)N1CCN(c2ccccc2)CC1)S(=O)(=O)c1cccc2cnccc12 | 106 | 104 | 90.5 | 108 |
| C#Cc1cccc(Nc2ncnc3cc(OCCOC)c(OCCOC)cc23)c1 | – | 94.2 | – | 77.2 |
| CCOc1cc2ncnc(Nc3cccc(Br)c3)c2cc1OCC | 46 | 92.6 | 88.1 | 89.2 |
| CO[C@H]1CC2CC[C@@H](C)[C@@](O)(O2)C(=O)C(=O)N2CCCC[C@H]2C(=O)OC([C@H](C)C[C@@H]2CC[C@@H](O)[C@H](OC)C2)CC(=O)[C@H](C)/C=C(\C)[C@@H](O)[C@@H](OC)C(=O)[C@H](C)C[C@H](C)/C=C/C=C/C=C/1C (some centres not stated) | 101 | 107 | 116 | 126 |
| CCN(CC)C(=O)c1ccc(Nc2nc(OCC3CCCCC3)c3nc[nH]c3n2)cc1 | 97.5 | 93.1 | 25.9 | 97.9 |
| O=c1cc(N2CCNCC2)oc2c(-c3ccccc3)cccc12 | 107 | 96.2 | 104 | 117 |
| CC[n+]1c(/C=C/N(C)c2ccccc2)n(-c2ccccc2)c2ccc(-c3nc4ccccc4s3)cc21 | 102 | 103 | 90.9 | 94.6 |
| O=C(O)c1ccc2c3c1cccc3c(=O)n1c3ccccc3nc21 | 60.3 | 103 | 82.5 | 117 |
| O=C1NC(=O)c2c1c1c3ccccc3[nH]c1c1[nH]c3cc(Br)ccc3c21 | 81.5 | 94.2 | 28 | 93.1 |
| O=C1NC(=O)c2c1c1c3ccccc3n3c1c1c2c2ccccc2n1C1CCC3O1 | 48.6 | 19.3 | 4.97 | 43.2 |
| O=C(NC(NC(=S)Nc1ccc(F)c([N+](=O)[O-])c1)C(Cl)(Cl)Cl)C(c1ccccc1)c1ccccc1 (configuration not stated) | 100 | 107 | 102 | 107 |
| Nc1nnc2[nH]c3ccccc3nc1-2 | 97.4 | 100 | 117 | 89.7 |
| CC[C@@H](CO)Nc1nc(NCc2ccccc2)c2ncn(C(C)C)c2n1 | 96.4 | 98.2 | 94 | 90 |
| Cn1sc(=O)n(Cc2ccccc2)c1=O | 98.6 | 94.9 | 86.8 | 100 |
| COc1cc2c(N3CCN(C(=O)Nc4ccc(OC(C)C)cc4)CC3)ncnc2cc1OCCCN1CCCCC1 | 89.7 | 102 | 94.6 | 103 |
| O=c1cc(N2CCOCC2)oc2c1ccc1ccccc12 | 95 | 94.1 | 112 | 90.6 |
| CSc1nc(-c2ccc(F)cc2)c(-c2ccnc(NC(C)c3ccccc3)c2)[nH]1 (configuration not stated) | 97.1 | 80.5 | 91.3 | 111 |
| O=C1Nc2cc(Br)ccc2/C1=C1/Nc2ccccc2/C1=N\O | 102 | 98.2 | 50.8 | 105 |
| CCn1cnc2c(Nc3cccc(Cl)c3)nc(N[C@@H]3CCCC[C@@H]3N)nc21 | 101 | 100 | 105 | 93.3 |
| O=C1Nc2ccccc2/C1=C1/Nc2ccccc2/C1=N\OCCC(O)CO (configuration not stated) | 95.3 | 79.7 | 22.3 | 92.9 |
| COc1cccc(-c2cc(=O)c3ccccc3o2)c1N | 95.4 | 92.4 | 90.8 | 103 |
| Cn1cc(/C=C2\C(=O)Nc3ccc(S(N)(=O)=O)cc32)c2ccccc21 | 74.1 | 116 | 65.1 | 103 |
| Nc1cccc(-c2cc3c(Oc4cccc(O)c4)ncnc3[nH]2)c1 | 87.6 | 90.1 | 15.8 | 64.5 |
| N#C/C(=C1/Nc2ccccc2S1)c1ccnc(NCCc2cccnc2)n1 | 90.2 | 92.5 | 86.1 | 104 |
| N#Cc1c(NC(=O)c2cccc3ccccc23)sc2c1CCCC2 | 106 | 98.1 | 89.8 | – |
| CCN(CC)CCNC(=O)c1c(C)[nH]c(/C=C2\C(=O)Nc3ccc(F)cc32)c1C | 99.3 | 75.9 | – | 63.5 |
| O=S(=O)(c1cccc2cnccc12)N1CCCNCC1 | 91.8 | 95.6 | – | 89.9 |

Further lines, results first:

| residual activity [1] [%] | residual activity [2] [%] | residual activity [3] [%] | residual activity [4] [%] | Structure (SMILES) |
| --- | --- | --- | --- | --- |
| 92.7 | 104 | 86.2 | 100 | Cc1nc2cc3nc(-c4cccs4)cnc3cc2n1C |
| 79.8 | 105 | 110 | 127 | CC(C)[C@H](CO)Nc1nc(Nc2cccc(Cl)c2)c2ncn(C(C)C)c2n1 |
| 93.1 | 92.3 | 107 | 101 | O=C1NC(=O)/C(=C/c2ccc3c(c2)OC(F)(F)O3)S1 |
| 75.9 | 138 | 92.2 | 115 | c1ccc(-c2n[nH]cc2-c2ccnc3ccccc23)nc1 |
| 103 | 97.5 | 99.8 | 104 | N#C/C(=C(/N)Sc1ccc(N)cc1)c1ccccc1C(F)(F)F |
| 80.8 | 88.7 | 99.3 | 105 | COc1cc2ncnc(Nc3cccc(Cl)c3)c2cc1OC |
| 61.1 | 96.1 | 98.2 | 89.6 | O=C(O)/C=C/c1cc(Br)c(Br)c(Br)c1Br |
| 93.9 | 79.4 | 91.5 | 119 | O=c1c(-c2ccc(F)cc2)c(-c2ccncc2)[nH]n1-c1ccc(Cl)cc1 |
| 90 | 96.5 | 100 | 103 | Cc1ccc(NC(=O)c2ccc(CN3CCN(C)CC3)cc2)cc1Nc1nc(-c2cccnc2)cs1 |
| 95.2 | 87.2 | 93.7 | 72 | CC(=O)O/N=C1\C(=C2\C(=O)Nc3cc(Br)ccc32)Nc2ccccc21 |
| 95.2 | 106 | 38.5 | 102 | CCCNC(=O)Nc1ccc(Oc2ncnc3cc(OC)c(OC)cc23)cc1Cl |
| 101 | 97.3 | 98.2 | 111 | CCCC(=O)Oc1ccc2[nH]c(C(=O)c3cc4ccccc4[nH]3)cc2c1 |
| 105 | 96.4 | 86.8 | 106 | Cn1nc2c3c(cccc31)C(=O)c1ccccc1-2 |
| 100 | 109 | 114 | 12.7 | CN(C)C[C@H]1CCn2c(c(C3=C(c4cn(C)c5ccccc45)C(=O)NC3=O)c3ccccc32)C1 |
| 102 | 86.6 | 104 | 105 | Oc1cccc(-c2nc(N3CCOCC3)c3oc4ncccc4c3n2)c1 |
| 98.5 | 102 | 119 | 111 | CS(=O)c1ccc(-c2nc(-c3ccc(F)cc3)c(-c3ccncc3)[nH]2)cc1 (configuration not stated) |
| 98.4 | 95.3 | 78.7 | 114 | O=C1Cc2c([nH]c3ccc(Br)cc23)-c2ccccc2N1 |
| 106 | 96.6 | 101 | 108 | Nc1ccc2ncnc(NCCc3ccc(Oc4ccccc4)cc3)c2c1 |
| 75.1 | 96.9 | 43 | 100 | CNC(=O)c1cc(Oc2ccc(NC(=O)Nc3ccc(Cl)c(C(F)(F)F)c3)cc2)ccn1 |
| 96.7 | 108 | 107 | 87.8 | O=C(Nc1cccc(Nc2cc(Nc3cccc(C(F)(F)F)c3)ncn2)c1)C1CC1 |
| 94.5 | 100 | 77.4 | 118 | CCCCc1c(-c2ccc(O)cc2)[nH]c2nccnc12 |
| 87.1 | 95.9 | 94.1 | 98.7 | COc1ccc(-c2cnc3c(-c4ccsc4)cnn3c2)cc1 |
| 98.9 | 94 | 101 | 123 | Oc1ccc(Nc2nc(-c3ccc(Cl)cc3)cs2)cc1 |
| 102 | 98.3 | – | 93.1 | Cc1ccc(Nc2nccc(N(C)c3ccc4c(C)n(C)nc4c3)n2)cc1S(N)(=O)=O |
